“And” between values parts separate entries of the source, which are not always exact repeats. Identical values can stand only once. The source made the active and inactive calls. The rule behind the calls is not given here.

Experimental findings from PubChem BioAssay AID588447 (Southern Research Specialized Biocontainment Screening …, 2011) are described below.

Assay [1] has as its system Mycobacterium tuberculosis H37Rv growth, 7H9 media. Kind of assay: Mycobacterium tuberculosis growth inhibition, dose response, 7H9 media, purified and synthesized compounds, set 8 (AID 588447). As to conditions: for IC50: measured here: IC50 growth inhibition replicates.
Test in assay [2]: as above
As to conditions: Mycobacterium tuberculosis H37Rv growth, 7H9 media.

What is called IC90 is the concentration needed for an effect of 90%. In general, IC50 refers to the concentration at which inhibition is half-maximal. Regarding `CCOC(=O)CSc1ncnc2c1cnn2-c1ccc(C)cc1C`, in assay [1], the 90% effect concentration (IC90) is 5.85 µM and the IC50 was 4.29 µM. The corresponding values for `CCC(C)NC(=O)CSc1nc2ccccc2c(=O)[nH]1` (centres undefined) are 8.3 µM and 5.98 µM. `CC1CCN(C(=O)c2ccc(CNc3c(N4CCCC4)c(=O)c3=O)cc2)CC1`: in assay [1], the IC50 was 9.07 µM. Turning to `COC(=O)CSc1ncnc2c1cnn2-c1ccc(C)cc1C`, in assay [1], the IC90 is 5.94 µM and the IC50 is 4.77 µM. On to `COc1ccc(N2CCN(C(=O)c3ccc(CNc4c(N5CCOCC5)c(=O)c4=O)cc3)CC2)cc1`, for which, in assay [1], the IC50 was 10.7 µM and 9.56 µM. For the molecule `CCOc1ccc(NC(=O)c2ccc(CNc3c(N4CCCC4)c(=O)c3=O)cc2)cc1`, in assay [2] (at 100 µM (top of the series)), the growth inhibition is -0.71% (inactive). `CC1CCCN(C(=O)C2CCC(CNc3c(N4CCCCC4)c(=O)c3=O)CC2)C1` (centres undefined) yielded an IC50 in assay [1] of 39.8 µM. For `O=C(c1ccc(CNc2c(N3CCOCC3)c(=O)c2=O)cc1)N1CC=C(c2ccccc2)CC1`, in assay [1], the IC90 is 7.8 µM and the IC50 worked out at 2.54 µM. On to `O=C(NCCc1ccc(Cl)cc1)c1ccc(CNc2c(N3CCOCC3)c(=O)c2=O)cc1`, for which the IC50 in assay [1] is 8.33 µM and 7.05 µM.

Turning to `CC1CC(C)CN(C(=O)C2CCC(CNc3c(N4CCCCC4)c(=O)c3=O)CC2)C1` (centres undefined), the IC50 in assay [1] is 19.9 µM and 26.3 µM. Regarding `CCOC(=O)N1CCC(Nc2c(Nc3cccc(CC)c3)c(=O)c2=O)CC1`, in assay [1], the IC90 is 87.5 µM and the IC50 is 61.5 µM. `CC1CC(C)CN(C(=O)c2ccc(CNc3c(N4CCCC4)c(=O)c3=O)cc2)C1` (centres undefined) returned an IC50 in assay [1] of 12.4 µM. The same measure, in the same setting: the result for `CC1CCCN(C(=O)c2ccc(CNc3c(N4CCCCC4)c(=O)c3=O)cc2)C1` (centres undefined) reads 7 µM. On the same count and under the same terms, then `Cc1cccc(N2CCN(C(=O)c3ccc(CNc4c(N5CCC(C)CC5)c(=O)c4=O)cc3)CC2C)c1` (centres undefined), with 63.7 µM; and `O=C(NCCc1ccc(Cl)cc1)C1CCC(CNc2c(N3CCCCC3)c(=O)c2=O)CC1` (centres undefined), with 56.3 µM. The same measure, in the same setting: the result for `CC(=O)c1ccc(NC(=O)c2ccc(CNc3c(N4CCOCC4)c(=O)c3=O)cc2)cc1` reads 75.7 µM. On to `O=C(C1CCC(CNc2c(N3CCCCC3)c(=O)c2=O)CC1)N1CCCCC1` (centres undefined), for which, in assay [1], the concentration for half-maximal inhibition (IC50) worked out at 30.8 µM. Take `O=C(c1ccc(CNc2c(N3CCCC3)c(=O)c2=O)cc1)N1CCc2ccccc2C1`: the half-maximal inhibitory concentration (IC50) in assay [1] was 7.01 µM. Turning to `O=C(c1ccc(CNc2c(N3CCCC3)c(=O)c2=O)cc1)N1CC=C(c2ccccc2)CC1`, in assay [1], the IC90 is 25.3 µM; the IC50 was 7.68 µM and 4.36 µM. As for `CCOC(=O)CSc1ncnc2c1cnn2-c1ccccc1`, in assay [1], the 50% inhibitory concentration (IC50) amounted to 26.8 µM. That is a double-digit micromolar value. Same read-out and setting: the result for `CC(C)OC(=O)CSc1ncnc2c1cnn2-c1ccccc1` reads 34.1 µM. For the molecule `Cc1cccc(N2CCN(C(=O)c3ccc(CNc4c(N5CCC(C)CC5)c(=O)c4=O)cc3)CC2)c1C`, the growth inhibition in assay [2] (at 75 µM (top of the series)) is 15.6% (inactive). In assay [1], the IC50 was 24.6 µM.
